In ChEMBL document CHEMBL2169750, “Imidazo-benzothiazoles a potent microRNA modulator involved in cell proliferation” (Bioorg Med Chem Lett, 2012):
Activity calls are given as the source filed them. No cut-off for these calls is given here.

Legend:
[1] = test system: COLO 205; assay: Cytotoxicity against human COLO205 cells assessed as reduction in cell viability at 0.5 to 4 uM after 48 hrs by MTT assay; assay type: functional, cell-based
[2] = test system: Drosophila melanogaster; assay: Toxicity in Drosophila melanogaster third instar larvae assessed as change in fecundity at 40 uM administered through feeding measured after 5 days; assay type: organism-based; details: in vivo, po, 120 h
[3] = test system: Drosophila melanogaster; assay: Toxicity in Drosophila melanogaster third instar larvae assessed as change in larvae development at 40 uM administered through feeding measured after 5 days; assay type: organism-based; details: in vivo, po, 120 h
[4] = test system: COLO 205; assay: Downregulation of HDAC-3 protein expression in human COLO205 cells at 4 uM after 24 hrs by Western blot analysis; assay type: functional, cell-based
[5] = test system: COLO 205; assay: Cell cycle arrest in human COLO205 cells assessed as accumulation at G2/M phase at 4 uM after 24 hrs by propidium iodide staining-based flow cytometry (reference value: 22%); assay type: functional
[6] = test system: COLO 205; assay: Cell cycle arrest in human COLO205 cells assessed as accumulation at G1 phase at 4 uM after 24 hrs by propidium iodide staining-based flow cytometry (reference value: 71%); assay type: functional
[7] = test system: COLO 205; assay: Cell cycle arrest in human COLO205 cells assessed as accumulation at S phase at 4 uM after 24 hrs by propidium iodide staining-based flow cytometry (reference value: 7%); assay type: functional
[8] = test system: COLO 205; assay: Downregulation of HDAC-6 protein expression in human COLO205 cells at 4 uM after 24 hrs by Western blot analysis; assay type: functional, cell-based
[9] = test system: Drosophila melanogaster; assay: Downregulation of miR-13a expression in Drosophila melanogaster third instar larval wing imaginal disc assessed as increase in EGFP expression at 40 uM administered through feeding measured after 5 days by confocal microscopy; assay type: functional, organism-based
[10] = test system: Drosophila melanogaster; assay: Downregulation of bantam microRNA expression in Drosophila melanogaster third instar larval wing imaginal disc assessed as increase in EGFP expression at 40 uM administered through feeding measured after 5 days by confocal microscopy; assay type: functional, organism-based
[11] = test system: Drosophila melanogaster; assay: Downregulation of miR-14 expression in Drosophila melanogaster third instar larval wing imaginal disc assessed as increase in EGFP expression at 40 uM administered through feeding measured after 5 days by confocal microscopy; assay type: functional, organism-based
[12] = test system: COLO 205; assay: Induction of apoptosis in human COLO205 cells assessed as cellular shrinkage at 4 uM after 24 hrs by Hoechst 33342-staining based confocal microscopy; assay type: functional, cell-based
[13] = test system: COLO 205; assay: Induction of apoptosis in human COLO205 cells assessed as DNA fragmentation at 4 uM by tunel assay; assay type: functional, cell-based
[14] = test system: Drosophila melanogaster; assay: Downregulation of HDAC4 mRNA expression in Drosophila melanogaster third instar larval wing imaginal disc at 10 to 100 uM administered through feeding measured after 5 days by semi quantitative RT-PCR analysis; assay type: functional, organism-based
[15] = test system: Drosophila melanogaster; assay: Downregulation of miR-13a expression in Drosophila melanogaster third instar larval wing imaginal disc assessed as increase in EGFP expression at 40 uM administered through feeding measured after 5 days by confocal microscopy relative to control; assay type: functional
[16] = test system: Drosophila melanogaster; assay: Downregulation of HDAC6 mRNA expression in Drosophila melanogaster third instar larval wing imaginal disc at 10 to 100 uM administered through feeding measured after 5 days by semi quantitative RT-PCR analysis; assay type: functional, organism-based
[17] = test system: COLO 205; assay: Induction of apoptosis in human COLO205 cells assessed as caspase 9 expression at 4 uM after 24 hrs by fluorimetric assay in presence of Z-LEHD-FMK; assay type: functional, cell-based
[18] = test system: Drosophila melanogaster; assay: Upregulation of Hid expression in Drosophila melanogaster third instar larval wing imaginal disc at 10 to 100 uM administered through feeding measured after 5 days by semi quantitative RT-PCR analysis relative to control; assay type: functional
[19] = test system: COLO 205; assay: Cytotoxicity against human COLO205 cells assessed as decrease in miR-542-5p level by RT-PCR analysis; assay type: functional, cell-based
[20] = test system: COLO 205; assay: Induction of apoptosis in human COLO205 cells assessed as increase in caspase 3 expression at 4 uM after 24 hrs by fluorimetric assay relative to control; assay type: functional
[21] = test system: COLO 205; assay: Cytotoxicity against human COLO205 cells assessed as miR-450 expression by RT-PCR analysis; assay type: functional, cell-based
[22] = test system: COLO 205; assay: Cytotoxicity against human COLO205 cells assessed as Dicer-1 expression at 4 uM after 24 hrs by Western blot analysis; assay type: functional, cell-based
[23] = test system: Drosophila melanogaster; assay: Downregulation of DIAP1 expression in Drosophila melanogaster third instar larval wing imaginal disc at 10 to 100 uM administered through feeding measured after 5 days by semi quantitative RT-PCR analysis; assay type: functional
[24] = test system: COLO 205; assay: Cytotoxicity against human COLO205 cells assessed as decrease in AGO-2 expression at 4 uM after 24 hrs by Western blot analysis; assay type: functional, cell-based
[25] = test system: COLO 205; assay: Induction of apoptosis in human COLO205 cells assessed as caspase 3 expression at 4 uM after 24 hrs by fluorimetric assay in presence of Z-DEVD-FMK; assay type: functional, cell-based
[26] = test system: COLO 205; assay: Induction of apoptosis in human COLO205 cells assessed as cellular blebbing at 4 uM after 24 hrs by Hoechst 33342-staining based confocal microscopy; assay type: functional, cell-based
[27] = test system: COLO 205; assay: Induction of apoptosis in human COLO205 cells assessed as chromatin condensation at 4 uM after 24 hrs by Hoechst 33342-staining based confocal microscopy; assay type: functional, cell-based
[28] = test system: Drosophila melanogaster; assay: Downregulation of HDAC-1 mRNA expression in Drosophila melanogaster third instar larval wing imaginal disc at 10 to 100 uM administered through feeding measured after 5 days by semi quantitative RT-PCR analysis; assay type: functional, organism-based
[29] = test system: Drosophila melanogaster; assay: Upregulation of Grim expression in Drosophila melanogaster third instar larval wing imaginal disc at 10 to 100 uM administered through feeding measured after 5 days by semi quantitative RT-PCR analysis relative to control; assay type: functional
[30] = test system: Drosophila melanogaster; assay: Upregulation of Reaper expression in Drosophila melanogaster third instar larval wing imaginal disc at 10 to 100 uM administered through feeding measured after 5 days by semi quantitative RT-PCR analysis relative to control; assay type: functional
[31] = test system: COLO 205; assay: Induction of apoptosis in human COLO205 cells assessed as increase in caspase 9 expression at 4 uM after 24 hrs by fluorimetric assay relative to control; assay type: functional
[32] = test system: Drosophila melanogaster; assay: Induction of apoptosis in Drosophila melanogaster third instar larval wing imaginal disc assessed as Dcp-1 activation at 10 to 100 uM administered through feeding measured after 5 days by semi quantitative RT-PCR analysis relative to control; assay type: functional
[33] = test system: Drosophila melanogaster; assay: Induction of apoptosis in Drosophila melanogaster third instar larval wing imaginal disc assessed as Dronc activation at 10 to 100 uM administered through feeding measured after 5 days by semi quantitative RT-PCR analysis relative to control; assay type: functional
[34] = test system: Drosophila melanogaster; assay: Downregulation of Sir2 mRNA expression in Drosophila melanogaster third instar larval wing imaginal disc at 10 to 100 uM administered through feeding measured after 5 days by semi quantitative RT-PCR analysis; assay type: functional, organism-based
[35] = test system: Drosophila melanogaster; assay: Effect on Ago-1 expression in Drosophila melanogaster third instar larval wing imaginal disc at 10 to 100 uM administered through feeding measured after 5 days by semi quantitative RT-PCR analysis; assay type: functional, organism-based
[36] = test system: COLO 205; assay: Cytotoxicity against human COLO205 cells assessed as increase in miR-145 level by RT-PCR analysis; assay type: functional, cell-based
[37] = test system: Drosophila melanogaster; assay: Downregulation of Drosha expression in Drosophila melanogaster third instar larval wing imaginal disc at 10 to 100 uM administered through feeding measured after 5 days by semi quantitative RT-PCR analysis relative to control; assay type: functional
[38] = test system: Drosophila melanogaster; assay: Downregulation of Pasha expression in Drosophila melanogaster third instar larval wing imaginal disc at 10 to 100 uM administered through feeding measured after 5 days by semi quantitative RT-PCR analysis relative to control; assay type: functional
[39] = test system: Drosophila melanogaster; assay: Downregulation of bantam microRNA expression in Drosophila melanogaster third instar larval wing imaginal disc assessed as increase in EGFP expression at 40 uM administered through feeding measured after 5 days by confocal microscopy relative to control; assay type: functional
[40] = test system: COLO 205; assay: Cytotoxicity against human COLO205 cells assessed as decrease in AGO-1 expression at 4 uM after 24 hrs by Western blot analysis; assay type: functional, cell-based
[41] = test system: Drosophila melanogaster; assay: Downregulation of HDAC3 mRNA expression in Drosophila melanogaster third instar larval wing imaginal disc at 10 to 100 uM administered through feeding measured after 5 days by semi quantitative RT-PCR analysis; assay type: functional, organism-based
[42] = test system: Drosophila melanogaster; assay: Downregulation of Dicer-1 expression in Drosophila melanogaster third instar larval wing imaginal disc at 10 to 100 uM administered through feeding measured after 5 days by semi quantitative RT-PCR analysis relative to control; assay type: functional

`CCOc1ccc2c(c1)sc1nc(-c3ccccc3)c(CN3CCCC3)n12` was tested, and the Activity [1] was “Active”, the Activity [2] was “Non-toxic” and the Activity [3] was “Non-toxic”.

`c1ccc(-c2nc3sc4ccccc4n3c2CN2CCCC2)cc1` was tested, and the Activity [1] was “Active”, the Activity [2] was “Non-toxic” and the Activity [3] was “Non-toxic”.

With `CCN(CC)CCOc1cccc(-c2cn3c(n2)sc2ccccc23)c1.Cl.Cl` the Activity [4] was “Active”, the Activity [5] was 73% and the Activity [6] was 22%. For the same compound, the Activity [7] was 5% and the Activity [8] was “Active”.

With `Fc1ccc2c(c1)sc1nc(-c3ccccc3)c(CN3CCCC3)n12` the Activity [1] was “Active”, the Activity [2] was “Non-toxic” and the Activity [3] was “Non-toxic”.

`Clc1ccc(-c2nc3sc4ccccc4n3c2CN2CCCC2)cc1` was tested, and the Activity [1] was “Active”, the Activity [2] was “Non-toxic” and the Activity [3] was “Non-toxic”.

For `CCOc1ccc2c(c1)sc1nc(-c3ccc(Cl)cc3)c(CN3CCN(c4ccccn4)CC3)n12`, the Activity [9] was “Active”, the Activity [1] was “Active” and the Activity [2] was “Non-toxic”. For the same compound, the Activity [10] was “Active”, the Activity [11] was “inactive” and the Activity [3] was “Non-toxic”.

`Clc1ccc(-c2nc3sc4ccccc4n3c2CN2CCN(c3ccccn3)CC2)cc1` was tested, and the Activity [12] was “Active”, the Activity [4] was “Active” and the Activity [13] was “Active”. For the same compound, the Activity [14] was “Active”, the “fold change (FC)” value [15] was 3 and the Activity [5] was 15%. For the same compound, the Activity [16] was “Active”, the Activity [17] was “inactive” and the “fold change (FC)” value [18] was 4. The Activity [9] was “Active”, the Activity [19] was “Active” and the “fold change (FC)” value [20] was 3. The Activity [21] was “inactive”, the Activity [22] was “inactive” and the “fold change (FC)” value [23] was 5. For the same compound, the Activity [24] was “Active”, the Activity [25] was “inactive” and the Activity [6] was 80%. The Activity [26] was “Active”, the Activity [27] was “Active” and the Activity [28] was “inactive”. The “fold change (FC)” value [29] was 3, the “fold change (FC)” value [30] was 2.5 and the “fold change (FC)” value [31] was 2.5. The “fold change (FC)” value [32] was 3, the Activity [7] was 5% and the “fold change (FC)” value [33] was 3. The Activity [34] was “Active”, the Activity [35] was “inactive” and the Activity [1] was “Active”. The Activity [36] was “Active”, the “fold change (FC)” value [37] was 4 and the “fold change (FC)” value [38] was 2. For the same compound, the Activity [2] was “Non-toxic”, the “fold change (FC)” value [39] was 5 and the Activity [10] was “Active”. The Activity [11] was “inactive”, the Activity [40] was “Active” and the Activity [41] was “Active”. For the same compound, the “fold change (FC)” value [42] was 3, the Activity [3] was “Non-toxic” and the Activity [8] was “Active”.

For `Cc1ccc2c(c1)sc1nc(-c3ccccc3)c(CN3CCCC3)n12`, the Activity [1] was “Active”, the Activity [2] was “Non-toxic” and the Activity [3] was “Non-toxic”.
